Assay results reported in the NIST ThermoML archive (doi:10.1016/j.fluid.2018.09.026).
Several values for one entry are separate records, joined by “and”; a condition that tells them apart may be missing. Equal values may be shown once.

Conditions: Liquid; for mass density: Vibrating tube method; for viscosity: Vibrating wire viscometry

OCCOCCOCCO [triethylene glycol]
Conditions	mass density	viscosity
333.15 K, 2100 kPa	1092.7 kg/m3	–
333.15 K, 3070 kPa	1093.2 kg/m3	–
333.15 K, 5060 kPa	1094.2 kg/m3	–
333.15 K, 6980 kPa	1095.2 kg/m3	–
333.15 K, 9970 kPa	1096.6 kg/m3	–
333.15 K, 14840 kPa	1099 kg/m3	–
333.15 K, 19660 kPa	1101.3 kg/m3	–
333.15 K, 24670 kPa	1103.7 kg/m3	–
333.15 K, 29610 kPa	1106 kg/m3	–
333.15 K, 34530 kPa	1108.2 kg/m3	–
333.15 K, 39400 kPa	1110.3 kg/m3	–
333.15 K, 44280 kPa	1112.5 kg/m3	–
333.15 K, 49110 kPa	1114.5 kg/m3	–
333.15 K, 54040 kPa	1116.5 kg/m3	–
333.15 K, 59060 kPa	1118.6 kg/m3	–
333.15 K, 63830 kPa	1120.5 kg/m3	–
333.15 K, 68770 kPa	1122.4 kg/m3	–
333.21 K, 150 kPa	–	9.306 mPa·s [middle of 4 runs]
333.21 K, 170 kPa	–	9.339 mPa·s [middle of 7 runs]
333.21 K, 750 kPa	–	9.338 mPa·s
333.21 K, 760 kPa	–	9.422 mPa·s and 9.347 mPa·s
333.21 K, 790 kPa	–	9.383 mPa·s
333.21 K, 1460 kPa	–	9.386 mPa·s [middle of 4 runs]
333.21 K, 1470 kPa	–	9.379 mPa·s and 9.375 mPa·s and 9.363 mPa·s
333.21 K, 4930 kPa	–	9.61 mPa·s
333.21 K, 4940 kPa	–	9.609 mPa·s and 9.653 mPa·s
333.21 K, 4950 kPa	–	9.655 mPa·s [middle of 4 runs]
333.21 K, 4970 kPa	–	9.688 mPa·s and 9.672 mPa·s
333.21 K, 4980 kPa	–	9.595 mPa·s and 9.684 mPa·s
333.21 K, 4990 kPa	–	9.704 mPa·s
333.21 K, 5030 kPa	–	9.613 mPa·s
333.21 K, 9610 kPa	–	10.02 mPa·s
333.21 K, 9620 kPa	–	9.96 mPa·s and 9.899 mPa·s
333.21 K, 9680 kPa	–	9.927 mPa·s
333.21 K, 9690 kPa	–	9.942 mPa·s and 9.978 mPa·s
333.21 K, 9700 kPa	–	9.918 mPa·s
333.21 K, 9720 kPa	–	9.986 mPa·s
333.21 K, 20900 kPa	–	10.78 mPa·s
333.21 K, 20930 kPa	–	10.79 mPa·s
333.21 K, 20940 kPa	–	10.78 mPa·s and 10.79 mPa·s
333.21 K, 29220 kPa	–	11.36 mPa·s
333.21 K, 29260 kPa	–	11.37 mPa·s
333.21 K, 29290 kPa	–	11.28 mPa·s
333.21 K, 29370 kPa	–	11.48 mPa·s
333.21 K, 29400 kPa	–	11.32 mPa·s
333.21 K, 29410 kPa	–	11.32 mPa·s
333.21 K, 29450 kPa	–	11.36 mPa·s
333.21 K, 29460 kPa	–	11.34 mPa·s
333.21 K, 29490 kPa	–	11.36 mPa·s
333.21 K, 29520 kPa	–	11.49 mPa·s
333.21 K, 29730 kPa	–	11.35 mPa·s
333.21 K, 29740 kPa	–	11.35 mPa·s
333.21 K, 29760 kPa	–	11.47 mPa·s
333.21 K, 29770 kPa	–	11.42 mPa·s
333.21 K, 37210 kPa	–	11.94 mPa·s
333.21 K, 37260 kPa	–	12.04 mPa·s
333.21 K, 37430 kPa	–	11.99 mPa·s
333.21 K, 37490 kPa	–	12.07 mPa·s
333.21 K, 38020 kPa	–	12.13 mPa·s
333.21 K, 38150 kPa	–	12.06 mPa·s
333.21 K, 38270 kPa	–	12.05 mPa·s
333.21 K, 47910 kPa	–	12.77 mPa·s
333.21 K, 48010 kPa	–	12.75 mPa·s
333.21 K, 48280 kPa	–	12.76 mPa·s
333.21 K, 49590 kPa	–	12.91 mPa·s
333.21 K, 49640 kPa	–	13.01 mPa·s
333.21 K, 49670 kPa	–	12.99 mPa·s
333.21 K, 49700 kPa	–	12.96 mPa·s
333.21 K, 49730 kPa	–	12.91 mPa·s
333.21 K, 68790 kPa	–	14.61 mPa·s
333.21 K, 69130 kPa	–	14.52 mPa·s
333.21 K, 69650 kPa	–	14.74 mPa·s
343.08 K, 200 kPa	–	6.978 mPa·s and 6.969 mPa·s and 6.931 mPa·s
343.08 K, 1160 kPa	–	6.971 mPa·s [middle of 4 runs]
343.08 K, 4890 kPa	–	7.185 mPa·s
343.08 K, 4900 kPa	–	7.179 mPa·s and 7.239 mPa·s and 7.214 mPa·s
343.08 K, 9750 kPa	–	7.392 mPa·s
343.08 K, 9760 kPa	–	7.403 mPa·s
343.08 K, 9770 kPa	–	7.403 mPa·s
343.08 K, 20580 kPa	–	8.071 mPa·s and 7.965 mPa·s
343.08 K, 20590 kPa	–	8.036 mPa·s and 7.937 mPa·s
343.08 K, 20600 kPa	–	8.08 mPa·s
343.08 K, 30330 kPa	–	8.459 mPa·s
343.08 K, 30350 kPa	–	8.469 mPa·s and 8.515 mPa·s and 8.474 mPa·s
343.08 K, 30390 kPa	–	8.519 mPa·s
343.08 K, 39560 kPa	–	8.994 mPa·s
343.08 K, 39590 kPa	–	9.055 mPa·s
343.08 K, 39640 kPa	–	9.065 mPa·s
343.08 K, 50360 kPa	–	9.671 mPa·s
343.08 K, 50420 kPa	–	9.687 mPa·s
343.08 K, 50470 kPa	–	9.572 mPa·s
343.08 K, 50570 kPa	–	9.608 mPa·s
343.08 K, 67230 kPa	–	10.62 mPa·s
343.08 K, 67540 kPa	–	10.64 mPa·s
343.08 K, 67870 kPa	–	10.63 mPa·s
343.15 K, 100 kPa	1083.9 kg/m3	–
343.15 K, 640 kPa	1084.2 kg/m3	–
343.15 K, 1120 kPa	1084.4 kg/m3	–
343.15 K, 1600 kPa	1084.7 kg/m3	–
343.15 K, 2110 kPa	1084.9 kg/m3	–
343.15 K, 3040 kPa	1085.5 kg/m3	–
343.15 K, 5040 kPa	1086.6 kg/m3	–
343.15 K, 6960 kPa	1087.5 kg/m3	–
343.15 K, 9920 kPa	1089 kg/m3	–
343.15 K, 14810 kPa	1091.6 kg/m3	–
343.15 K, 19680 kPa	1093.9 kg/m3	–
343.15 K, 24620 kPa	1096.4 kg/m3	–
343.15 K, 29580 kPa	1098.7 kg/m3	–
343.15 K, 34460 kPa	1101 kg/m3	–
343.15 K, 39370 kPa	1103.3 kg/m3	–
343.15 K, 44240 kPa	1105.4 kg/m3	–
343.15 K, 49160 kPa	1107.6 kg/m3	–
343.15 K, 54020 kPa	1109.7 kg/m3	–
343.15 K, 58940 kPa	1111.7 kg/m3	–
343.15 K, 63890 kPa	1113.8 kg/m3	–
343.15 K, 68680 kPa	1115.7 kg/m3	–
353.15 K, 100 kPa	1076 kg/m3	–
353.15 K, 650 kPa	1076.3 kg/m3	–
353.15 K, 1100 kPa	1076.5 kg/m3	–
353.15 K, 1550 kPa	1076.7 kg/m3	–
353.15 K, 2100 kPa	1077.1 kg/m3	–
353.15 K, 3050 kPa	1077.6 kg/m3	–
353.15 K, 5040 kPa	1078.6 kg/m3	–
353.15 K, 7010 kPa	1079.8 kg/m3	–
353.15 K, 9960 kPa	1081.3 kg/m3	–
353.15 K, 14810 kPa	1084 kg/m3	–
353.15 K, 19780 kPa	1086.5 kg/m3	–
353.15 K, 24610 kPa	1089 kg/m3	–
353.15 K, 29560 kPa	1091.9 kg/m3	–
353.15 K, 34450 kPa	1093.8 kg/m3	–
353.15 K, 39370 kPa	1096.1 kg/m3	–
353.15 K, 44270 kPa	1098.4 kg/m3	–
353.15 K, 49200 kPa	1100.6 kg/m3	–
353.15 K, 54090 kPa	1102.8 kg/m3	–
353.15 K, 59010 kPa	1104.9 kg/m3	–
353.15 K, 63820 kPa	1107 kg/m3	–
353.15 K, 68800 kPa	1109 kg/m3	–
362.88 K, 190 kPa	–	4.247 mPa·s [middle of 7 runs]
362.88 K, 1270 kPa	–	4.27 mPa·s [middle of 8 runs]
362.88 K, 1990 kPa	–	4.308 mPa·s and 4.283 mPa·s and 4.311 mPa·s
362.88 K, 2000 kPa	–	4.292 mPa·s [middle of 5 runs]
362.88 K, 4990 kPa	–	4.388 mPa·s [middle of 4 runs]
362.88 K, 5000 kPa	–	4.396 mPa·s and 4.394 mPa·s and 4.386 mPa·s
362.88 K, 10010 kPa	–	4.54 mPa·s and 4.522 mPa·s and 4.512 mPa·s
362.88 K, 10020 kPa	–	4.524 mPa·s [middle of 4 runs]
362.88 K, 19820 kPa	–	4.812 mPa·s
362.88 K, 19830 kPa	–	4.792 mPa·s and 4.786 mPa·s and 4.794 mPa·s
362.88 K, 19840 kPa	–	4.789 mPa·s
362.88 K, 29760 kPa	–	5.092 mPa·s
362.88 K, 29770 kPa	–	5.089 mPa·s
362.88 K, 29780 kPa	–	5.088 mPa·s
362.88 K, 29790 kPa	–	5.109 mPa·s
362.88 K, 39030 kPa	–	5.381 mPa·s
362.88 K, 39050 kPa	–	5.39 mPa·s
362.88 K, 39060 kPa	–	5.382 mPa·s
362.88 K, 39070 kPa	–	5.395 mPa·s
362.88 K, 39330 kPa	–	5.395 mPa·s
362.88 K, 50130 kPa	–	5.747 mPa·s
362.88 K, 50260 kPa	–	5.754 mPa·s
362.88 K, 50300 kPa	–	5.756 mPa·s
362.88 K, 50380 kPa	–	5.739 mPa·s
362.88 K, 50430 kPa	–	5.763 mPa·s
362.88 K, 67370 kPa	–	6.356 mPa·s
362.88 K, 67660 kPa	–	6.331 mPa·s
362.88 K, 67980 kPa	–	6.382 mPa·s
363.15 K, 100 kPa	1068.1 kg/m3 and 1068 kg/m3	–
363.15 K, 660 kPa	1068.4 kg/m3	–
363.15 K, 1120 kPa	1068.7 kg/m3	–
363.15 K, 1560 kPa	1068.9 kg/m3	–
363.15 K, 2130 kPa	1069.2 kg/m3	–
363.15 K, 3050 kPa	1069.8 kg/m3	–
363.15 K, 5090 kPa	1070.9 kg/m3	–
363.15 K, 6990 kPa	1072 kg/m3	–
363.15 K, 9980 kPa	1073.7 kg/m3	–
363.15 K, 14880 kPa	1076.4 kg/m3	–
363.15 K, 19680 kPa	1079 kg/m3	–
363.15 K, 24720 kPa	1081.7 kg/m3	–
363.15 K, 29630 kPa	1084.2 kg/m3	–
363.15 K, 34490 kPa	1086.6 kg/m3	–
363.15 K, 39430 kPa	1089 kg/m3	–
363.15 K, 44200 kPa	1091.4 kg/m3	–
363.15 K, 49240 kPa	1093.7 kg/m3	–
363.15 K, 54100 kPa	1095.9 kg/m3	–
363.15 K, 59010 kPa	1098.1 kg/m3	–
363.15 K, 63880 kPa	1100.2 kg/m3	–
363.15 K, 68830 kPa	1102.3 kg/m3	–
